In ChEMBL document CHEMBL5036348, “Identification and evaluation of 4-anilinoquin(az)olines as potent inhibitors of both dengue virus (DENV) and Venezuelan equine encephalitis virus (VEEV)” (Bioorg Med Chem Lett, 2021) one finds CC50 and EC50 data, which are given here for 36 molecules.

The term CC50 denotes the concentration that lowers cell viability or growth by half. As usually defined, the EC50 is the concentration that produces a half-maximal response.

Series [1] is described as follows: Cytotoxicity against DENV infected human Huh-7 cells assessed as reduction in cell viability by alamar blue assay. Format: cell-based. The following applies: DENV-infected Huh-7 cells. (In general: The colour change of resazurin is a common sign of viable cells or microbes.)
The next series has as its system dengue virus type 2. Description: Antiviral activity against DENV2 New Guinea C strain infected in human Huh7 cells assessed as reduction in viral infection measured after 48 hrs post infection by renilla luciferase assay relative to control. The following applies: Huh-7, 48 h. Format: functional, organism-based.
Series [2] concerns Venezuelan equine encephalitis virus. The series is described as follows: Antiviral activity against Venezuelan equine encephalitis virus TC-83 strain infected in human U-87 MG cells assessed as reduction in viral infection measured after 18 hrs post infection by Nano luciferase assay relative to control. Format: functional, organism-based. The following applies: TC-83, U-87 MG.

Series [3] is described as follows: Cytotoxicity against Venezuelan equine encephalitis virus TC-83 strain infected human U-87 MG cells assessed as reduction in cell viability by alamar blue assay. The class given is cell-based, U-87MG ATCC.

The structures appear in SMILES notation. Bounds are passed on as bounds.

For the molecule `Fc1cccc(Nc2ccnc3ccc(C(F)(F)F)cc23)c1`, the CC50 in series [1] and in series [3] was more than 10 µM in each case. For the same molecule, the EC50 (in the series with dengue virus type 2; in series [2]) was more than 10 µM in each case.
Regarding `COc1cccc(Nc2ccnc3cc(OC)c(OC)cc23)c1`, the CC50 in series [1] and in series [3] was more than 10 µM throughout. In addition, the concentration giving a half-maximal response (EC50) with dengue virus type 2 worked out at 5.9 µM; in series [2], 4.8 µM.
Take `C#Cc1cccc(Nc2c(C#N)cnc3ccc(OC)cc23)c1`: the CC50 in series [1] and in series [3] was more than 10 µM each time. The EC50 in the series on dengue virus type 2 was 8.9 µM; in series [2], more than 10 µM.
As for `Fc1cc(Nc2ccnc3ccc(C(F)(F)F)cc23)ccc1Cl`, the CC50 in series [1] and in series [3] was more than 10 µM each time. Moreover, the EC50 with dengue virus type 2 stood at 4.1 µM; in series [2] it was 1.7 µM.
For `FC(F)(F)c1ccc2nccc(Nc3ccccc3Cl)c2c1`, the CC50 in series [1] and in series [3] was more than 10 µM in each case. The values for the EC50 (in the series on dengue virus type 2; in series [2]) were more than 10 µM and 6.4 µM, respectively.
On to `COc1cc(Nc2ccnc3ccc(C(F)(F)F)cc23)cc(OC)c1OC`, for which the CC50 in series [1] and in series [3] was more than 10 µM in each case. For the same molecule, the EC50 in series [2] came to 1.6 µM.
Take `N#Cc1ccc(Nc2ccnc3ccc(C(F)(F)F)cc23)cc1`: the CC50 in series [1] and in series [3] was more than 10 µM throughout. Further, the EC50 in the series with dengue virus type 2 is 9.8 µM; in series [2], more than 10 µM.
Turning to `C#Cc1cccc(Nc2ncnc3cc(OCCOC)c(OCCOC)cc23)c1` [ERLOTINIB], the EC50 in series [2] was more than 20 µM.
Turning to `FC(F)(F)c1ccc2nccc(Nc3cccc(Cl)c3)c2c1`, the CC50 in series [1] and in series [3] was more than 10 µM each time. The 50% effective concentration (EC50) is 7.9 µM in the series on dengue virus type 2 and 4.8 µM in series [2].
Consider `COc1ccccc1Nc1ccnc2ccc(C(F)(F)F)cc12`, for which the CC50 in series [1] and in series [3] was more than 10 µM throughout. Moreover, the EC50 in the series with dengue virus type 2 was more than 10 µM; in series [2] it was 2.5 µM.
For `N#Cc1ccccc1Nc1ccnc2ccc(C(F)(F)F)cc12`, the half-maximal cytotoxic concentration (CC50) in series [1] and in series [3] was more than 10 µM throughout. Further, the half-maximal effective concentration (EC50) (in the series on dengue virus type 2; in series [2]) was more than 10 µM in each case.
Consider `C#Cc1cc(Nc2ncnc3cc(I)ccc23)ccc1F`, for which the CC50 in series [1] and in series [3] was more than 10 µM throughout. In addition, the EC50 (in the series on dengue virus type 2; in series [2]) was more than 10 µM each time.
Consider `C#Cc1cc(Nc2ncnc3ccc(I)cc23)ccc1F`, for which the CC50 in series [1] and in series [3] was more than 10 µM each time. The EC50 was 5 µM in the series on dengue virus type 2 and more than 10 µM in series [2].
For `C#Cc1cc(Nc2ncnc3cc(C#N)ccc23)ccc1F`, the CC50 in series [1] and in series [3] was more than 10 µM each time. Besides, the results for the concentration giving a half-maximal response (EC50) (in the series on dengue virus type 2; in series [2]) were more than 10 µM and 3.9 µM, respectively.
For `COc1ccc(Nc2ccnc3ccc(C(F)(F)F)cc23)cc1OC`, the 50% cytotoxic concentration (CC50) in series [1] and in series [3] was more than 10 µM each time. Besides, the results for the half-maximal effective concentration (EC50) (in the series with dengue virus type 2; in series [2]) were 8.9 µM and more than 10 µM, respectively.
Take `C#Cc1cccc(Nc2ncnc3ccc(OC)cc23)c1`: the CC50 in series [1] and in series [3] was more than 10 µM throughout. In addition, the EC50 came to 9.7 µM with dengue virus type 2 and 8 µM in series [2].
Take `C#Cc1cccc(Nc2ccnc3cc(OC)c(OC)cc23)c1`: the CC50 in series [1] and in series [3] was more than 10 µM in each case. The EC50 stood at 8.6 µM in the series with dengue virus type 2 and 7.5 µM in series [2].
With `COc1ccc(Nc2ccnc3ccc(C(F)(F)F)cc23)c(OC)c1`, the CC50 in series [1] and in series [3] was more than 10 µM in each case. Also, the values for the EC50 (in the series on dengue virus type 2; in series [2]) were more than 10 µM and 3.4 µM, respectively.
Consider `Fc1ccc(Nc2ccnc3ccc(C(F)(F)F)cc23)cc1`, for which the CC50 in series [1] and in series [3] was more than 10 µM throughout. For the same molecule, the EC50 (with dengue virus type 2; in series [2]) was more than 10 µM in each case.
As to `FC(F)(F)c1ccc2nccc(Nc3ccc4c(c3)OCCO4)c2c1`, the CC50 in series [1] and in series [3] was more than 10 µM in each case. The EC50 (in the series with dengue virus type 2; in series [2]) was more than 10 µM throughout.
Turning to `C#Cc1cc(Nc2ncnc3cc(OC)c(OC)cc23)ccc1F`, the CC50 in series [1] and in series [3] was more than 10 µM in each case. The EC50 was found to be 7.6 µM in the series on dengue virus type 2 and 0.6 µM in series [2].
Take `CS(=O)(=O)c1ccc(Nc2ccnc3ccc(C(F)(F)F)cc23)cc1`: the CC50 in series [1] and in series [3] was more than 10 µM throughout. In addition, the EC50 in the series on dengue virus type 2 is 6.1 µM; in series [2], more than 10 µM.
With `FC(F)(F)c1ccc2nccc(Nc3cccc(Br)c3)c2c1`, the CC50 in series [1] and in series [3] was more than 10 µM each time. Moreover, the EC50 in the series on dengue virus type 2 amounted to 6.1 µM; in series [2], 2.3 µM.
Consider `FC(F)(F)c1ccc2nccc(Nc3ccc(Br)cc3)c2c1`, for which the cytotoxic concentration (CC50) in series [1] and in series [3] was more than 10 µM in each case. Moreover, the values for the concentration giving a half-maximal response (EC50) (in the series with dengue virus type 2; in series [2]) were 4.1 µM and 6.3 µM, respectively.
With `C#Cc1cccc(Nc2ccnc3ccc(OC)cc23)c1`, the CC50 in series [1] and in series [3] was more than 10 µM in each case. In addition, the EC50 with dengue virus type 2 was 4.3 µM; in series [2] it was more than 10 µM.
Take `C#Cc1ccc(F)c(Nc2ncnc3cc(OC)c(OC)cc23)c1`: the half-maximal cytotoxic concentration (CC50) in series [1] and in series [3] was more than 10 µM each time. In addition, the EC50 was 9 µM in the series on dengue virus type 2 and 7.8 µM in series [2].
As for `COc1ccc(Nc2ccnc3ccc(C(F)(F)F)cc23)cc1`, the CC50 in series [1] and in series [3] was more than 10 µM throughout. The EC50 in the series with dengue virus type 2 was determined as 7.7 µM; in series [2], 0.88 µM.
Consider `COc1cc2nccc(Nc3cccc(C(C)=O)c3)c2cc1OC`, for which the CC50 in series [1] and in series [3] was more than 10 µM in each case. Moreover, the results for the concentration giving a half-maximal response (EC50) (with dengue virus type 2; in series [2]) were 4.8 µM and 1.3 µM, respectively.
For the molecule `COc1cc(Nc2ccnc3ccc(C(F)(F)F)cc23)cc(OC)c1`, the CC50 in series [1] and in series [3] was more than 10 µM in each case. Besides, the EC50 was 1.3 µM in the series with dengue virus type 2 and 2.1 µM in series [2].
For `Fc1ccccc1Nc1ccnc2ccc(C(F)(F)F)cc12`, the 50% cytotoxic concentration (CC50) in series [1] and in series [3] was more than 10 µM throughout. In addition, the EC50 (in the series with dengue virus type 2; in series [2]) was more than 10 µM throughout.
Regarding `Fc1cc(Nc2ccnc3ccc(C(F)(F)F)cc23)cc(F)c1F`, the cytotoxic concentration (CC50) in series [1] and in series [3] was more than 10 µM in each case. Also, the EC50 (in the series on dengue virus type 2; in series [2]) was more than 10 µM each time.
Regarding `C#Cc1cccc(Nc2ncnc3cc(OC)c(OC)cc23)c1`, the CC50 in series [1] and in series [3] was more than 10 µM throughout. For the same molecule, the concentration giving a half-maximal response (EC50) in the series on dengue virus type 2 turned out to be 6.5 µM; in series [2], 10 µM.
As to `CS(=O)(=O)c1cccc(Nc2ccnc3ccc(C(F)(F)F)cc23)c1`, the CC50 in series [1] and in series [3] was more than 10 µM in each case. Moreover, the EC50 (in the series with dengue virus type 2; in series [2]) was more than 10 µM each time.
On to `Fc1ccc(Nc2ccnc3ccc(C(F)(F)F)cc23)cc1F`, for which the CC50 in series [1] and in series [3] was more than 10 µM each time. In addition, the EC50 (in the series with dengue virus type 2; in series [2]) was more than 10 µM each time.
For the molecule `C#Cc1cccc(Nc2ncnc3cc(OC)ccc23)c1`, the CC50 in series [1] and in series [3] was more than 10 µM throughout. The EC50 (in the series with dengue virus type 2; in series [2]) was more than 10 µM in each case.
Consider `N#Cc1cccc(Nc2ccnc3ccc(C(F)(F)F)cc23)c1`, for which the CC50 in series [1] and in series [3] was more than 10 µM in each case. The EC50 in the series with dengue virus type 2 was more than 10 µM; in series [2], 2.2 µM.
